Reference: US20140301961A1, “COMPOUNDS WITH ANTI-AGING ACTIVITIES” (priority 2011, published 2014)
Entries after “also recorded” stand apart in the source; their conditions may differ.

How the values were obtained:
Keratin 1/10 = Keratin 1/10 production in human normal keratinocytes; format: cell-based; conditions: for synthesis of Keratin 1/10: human normal keratinocytes (FIG. 15)
Experimental: Keratinocytes were cultured in commercially available keratinocyte medium M154 (Cascade Biologics/Invitrogen) # M154500 with a final calcium […]. Supplements were added meeting following final concentrations of growth factors; bovine pituitary extract (BPE), 0.2% v/v·bovine insulin, 5 μg/ml·hydrocortisone, 0.18 μg/ml·bovine transferrin, 5 μg/ml·human epidermal growth factor, 0.2 ng/ml.
Medium was changed every other day. Cells were grown to 80% confluence prior stimulation with compounds. Experiments were performed in 24-well plates. The cells were treated with individual compounds of the invention for 6 days. After 3 days the medium was refreshed. A source of calcium ions was used as a positive control. After 6 days tissue culture medium was stored in −20° C. until analysis.
Cells were cultured as described in Example 5.1. and the methodology described in Example 3.1 was adapted in order analyze keratin 1/10 production.

[1] = tested on: arachidonate 5-lipoxygenase (ALOX5); experiment: Affymetrix gene array on skin explants, ALOX5; format: cell-based, human; conditions: topical, 24 hours
Excerpt: (§1) Subcutaneous fat from full thickness skin, obtained from surgical waste material from breast reduction procedures, was removed with a scalpel. Three healthy Caucasian female donors were used for this study. The female donors differed from those of the skin-treatment study outlined previously 8 mm punch biopsies were taken from the skin (and these biopsies are now referred to as skin explants). Skin explants were put on Milipore cell culture inserts (12 mm diameter). Inserts containing skin explants were put in 6-well plates (one insert/well) and 1 mL of supplemented keratinocyte medium (ex Cascade Biologics) was added to each well. A tretinoin-containing cream (Aberela® ex. Janssen): 0.05% tretinoin in the cream, was applied topically to each explant (5 μL/cm^2) using a positive displacement pipette. A placebo cream without tretinoin was used as a control. The skin explants were incubated with tretinoin for 24 hours at 37° C. in 5% CO2-humidified air.
(§2) RNA concentration was measured with ND-1000 spectrophotometer (ex. NanoDrop Technologies) and RNA quality was evaluated using the Agilent 2100 bioanalyzer system (ex. Agilent Technologies). 250 nanograms of total RNA from each skin or skin explant sample was used to prepare biotinylated fragmented cRNA according to the GeneChip® 3′IVT Express Kit Manual (PN702646 Rev 1, ex. Affymetrix Inc.). Affymetrix GeneChip® expression arrays (Human Genome U133 Plus 2.0) were hybridized for 16 hours in a 45° C. incubator, rotated at 60 rpm. According to the GeneChip Expression Wash, Stain and Scan Manual (PN 702731 Rev 2, ex. Affymetrix Inc.) the arrays were washed and stained using the Fluidics Station 450 and scanned using the GeneChip® Scanner 3000 7G.
(§3) Analysis of the gene expression data was carried out in the statistical computing language R (http://www.r-project.org) using packages available from the Bioconductor project (www.bioconductor.org). The raw data was normalized using the robust multi-array average (RMA) method. In order to search for differentially expressed genes between the X samples and the Y samples group an empirical Bayes moderated t-test was then applied using the ‘limma’ package.
(§4) Skin explants were obtained as detailed in Example 3.1.

GM-CSF [2] = experiment: UV-induced GM-CSF expression in skin explants; format: cell-based, human; conditions: topical 1% w/w solution in propylene glycol, 120 mJ/cm^2 UVA and UVB (FIG. 9)
Experimental: (§5) Full thickness skin from surgical waste material from breast reductions was collected. Subcutaneous fat was removed with a scalpel. 8 mm punch biopsies was taken from the skin and referred to as skin explants. Thereafter, the explants were put on Millipore cell culture inserts (12 mm in diameter). Inserts containing skin explants were put in 6-well plate (1 insert/well) and 1 mL of supplemented keratinocyte medium (Cascade Biologics) was added to each well to allow survival and nutrition of the explants. […] Supernatants were thereafter collected and analyzed for GM-CSF production.

interleukin-6 [IL-6] = experiment: Interleukin-6 production in PMA-stimulated dermal fibroblasts; format: cell-based, human; conditions: PMA 10 nM (FIG. 7)
Experimental: Human dermal fibroblast cell cultures were prepared according to Example 3.1. To induce inflammation in the cells PMA (phorbol myristate acetate) (ex. Sigma) was used at a concentration of 10 nM. […] The cells were stimulated for 24 h and the culture supernatant was collected and stored at −20° C. until further analysis
(§6) Experimental method as outlined in Example 3.1 was modified in order to analyze IL-6 levels extracted from dermal fibroblasts stimulated for 6 days with all-trans retinoic acid, retinol, arachidonic acid, β-aescin, and […] (ethyl ester) at a range of concentrations. Experiments were performed in duplicates.

[3] = tested on: prostaglandin-endoperoxide synthase 1 (PTGS1); experiment: Affymetrix gene array on skin explants, PTGS1; format: cell-based, human; conditions: topical, 24 hours
Excerpt: as §1, §2, §3, §4

[4] = tested on: Fibroblast growth factor (FGF); experiment: FGF production in human skin explants; format: cell-based; conditions: topical (FIG. 13)
Experimental: as §5
Human Skin Explants were Obtained and Treated as Described in Example 7.3.
The methodology described in Example 3.1 was adapted in order analyze FGF production in skin explants.

pro-collagen type 1 = experiment: Pro-collagen 1 ELISA in dermal fibroblasts; format: cell-based, human; conditions: 24 hour stimulation, 3 donors (FIG. 5)
Experimental: MMP-inhibitory activity for compounds of the invention was also assessed on human dermal fibroblasts. Dermal fibroblasts were cultured in Dulbecco's Modified Eagle Medium (DMEM) (Invitrogen) with 10% EBS (ex. Invitrogen) and 1% Pencillin/Streptavidin (ex. Invitrogen). To induce inflammation in the cells, PMA (phorbol myristate acetate) (ex. Sigma) was used at a concentration of 10 nM. […] The cells were stimulated for 24 h and the culture supernatant was collected and stored at −20° C. until further analysis.
Fibroblast cells were cultured as outlined in Example 3.1 and treated with compounds of the invention The secretion of pro-collagen in the cell culture supernatants were analyzed using Pro-Collagen 1 specific ELISA (#8003; ex. Quidel). Results were compared with cell culture supernatants from DMSO vehicle treated cells. The assays utilized a 96-well microplate format and were processed according to the manufacturer's protocol, including generation of a standard curve prepared in background assay diluents. Absorbance of the assay dye was read at a Synergy HT plate reader. Values that fell within the linear range of the calibration assay were accepted. Quantities were determined by comparison to standard curve obtained for pro-collagen 1.

GM-CSF [5] = experiment: GM-CSF production in PMA-stimulated human dermal fibroblasts; format: cell-based; conditions: PMA 10 nM (FIG. 8)
Experimental: Cell Cultures were Prepared According to Example 3.1
To induce inflammation in the cells PMA (phorbol myristate acetate) (ex. Sigma) was used at a concentration of 10 nM. […] The cells were stimulated for 24 h and the culture supernatant was collected and stored at −20° C. until further analysis.
as §6, with “GM-CSGF” for “IL-6”, “in human dermals” for “extracted from dermal”, “stimulated” for “stimulated for 6 days”

Structure (SMILES)	synthesis of Keratin 1/10 (Keratin 1/10; 1.2 microM)	ALOX5 gene expression [1] [log 2−ratio]	UV-induced expression of GM-CSF (GM-CSF [2])	interleukin-6 production (interleukin-6 [IL-6])	PTGS1 gene expression [3] [log 2−ratio]	FGF production [4]	production of pro-collagen type 1 (pro-collagen type 1)	GM-CSF production (GM-CSF [5])	synthesis of Keratin 1/10 (Keratin 1/10; 150 microM)	FGF production ([4]; listed as naringenin)	production of Keratin 1/10 (Keratin 1/10; concentration not given)
C=C1C[C@]23C[C@@]1(O)CC[C@H]2[C@@]12C=C[C@H](O)[C@@](C)(C(=O)O1)[C@@H]2[C@@H]3C(=O)O [Gibberellic acid, (3S,3aS,4S,4aS,7S,9aR,9bR,12S)-7,12-dihydroxy-3-methyl-6-methylene-2-oxoperhydro-4a,7-methano-9b,3-propenoazuleno[1,2-b]furan-4-carboxylic acid]	significant increase in the synthesis of Keratin 1/10	−1.01	suppression of UV-induced expression of GM-CSF	inhibit interleukin-6 production	−1.11	higher FGF production than retinoic acid; also recorded: Stimulation of FGF production	significantly increase	inhibition of GM-CSF production			
O=C1C[C@@H](c2ccc(O)cc2)Oc2cc(O)cc(O)c21 [Naringenin, (S)-2,3-Dihydro-5,7-dihydroxy-2-(4-hydroxyphenyl)-4H-1-benzopyran-4-one]		−0.69	suppression of UV-induced expression of GM-CSF	inhibit interleukin-6 production	−3.51	higher FGF production than retinoic acid	convincing trend towards increasing	inhibition of GM-CSF production	significant increase in the synthesis of Keratin 1/10	Stimulation of FGF production	
CC(=O)N[C@@H](CC(=O)O)C(=O)O [N-Acetyl aspartic acid, (2S)-2-Acetamidobutanedioic acid]		0.15	suppression of UV-induced expression of GM-CSF	inhibit interleukin-6 production	−0.20	higher FGF production than retinoic acid; also recorded: Stimulation of FGF production	significantly increase	inhibition of GM-CSF production			stimulate production of Keratin 1/10
